Test results from ChEMBL document CHEMBL2074566, “Azithromycin reverses anticancer drug resistance and modifies hepatobiliary excretion of doxorubicin in rats” (Eur J Pharmacol, 2004).

Molecular target: ATP-dependent translocase ABCB1 (Homo sapiens, UniProt P08183)
Assay: TP_TRANSPORTER: cell accumulation of doxorubicin in the presence of Azithromycin at a concentration of 0.3uM and 1mM in K562/ADR cells
Format: functional, cell-based

Sequence of ATP-dependent translocase ABCB1 (P08183 whole entry): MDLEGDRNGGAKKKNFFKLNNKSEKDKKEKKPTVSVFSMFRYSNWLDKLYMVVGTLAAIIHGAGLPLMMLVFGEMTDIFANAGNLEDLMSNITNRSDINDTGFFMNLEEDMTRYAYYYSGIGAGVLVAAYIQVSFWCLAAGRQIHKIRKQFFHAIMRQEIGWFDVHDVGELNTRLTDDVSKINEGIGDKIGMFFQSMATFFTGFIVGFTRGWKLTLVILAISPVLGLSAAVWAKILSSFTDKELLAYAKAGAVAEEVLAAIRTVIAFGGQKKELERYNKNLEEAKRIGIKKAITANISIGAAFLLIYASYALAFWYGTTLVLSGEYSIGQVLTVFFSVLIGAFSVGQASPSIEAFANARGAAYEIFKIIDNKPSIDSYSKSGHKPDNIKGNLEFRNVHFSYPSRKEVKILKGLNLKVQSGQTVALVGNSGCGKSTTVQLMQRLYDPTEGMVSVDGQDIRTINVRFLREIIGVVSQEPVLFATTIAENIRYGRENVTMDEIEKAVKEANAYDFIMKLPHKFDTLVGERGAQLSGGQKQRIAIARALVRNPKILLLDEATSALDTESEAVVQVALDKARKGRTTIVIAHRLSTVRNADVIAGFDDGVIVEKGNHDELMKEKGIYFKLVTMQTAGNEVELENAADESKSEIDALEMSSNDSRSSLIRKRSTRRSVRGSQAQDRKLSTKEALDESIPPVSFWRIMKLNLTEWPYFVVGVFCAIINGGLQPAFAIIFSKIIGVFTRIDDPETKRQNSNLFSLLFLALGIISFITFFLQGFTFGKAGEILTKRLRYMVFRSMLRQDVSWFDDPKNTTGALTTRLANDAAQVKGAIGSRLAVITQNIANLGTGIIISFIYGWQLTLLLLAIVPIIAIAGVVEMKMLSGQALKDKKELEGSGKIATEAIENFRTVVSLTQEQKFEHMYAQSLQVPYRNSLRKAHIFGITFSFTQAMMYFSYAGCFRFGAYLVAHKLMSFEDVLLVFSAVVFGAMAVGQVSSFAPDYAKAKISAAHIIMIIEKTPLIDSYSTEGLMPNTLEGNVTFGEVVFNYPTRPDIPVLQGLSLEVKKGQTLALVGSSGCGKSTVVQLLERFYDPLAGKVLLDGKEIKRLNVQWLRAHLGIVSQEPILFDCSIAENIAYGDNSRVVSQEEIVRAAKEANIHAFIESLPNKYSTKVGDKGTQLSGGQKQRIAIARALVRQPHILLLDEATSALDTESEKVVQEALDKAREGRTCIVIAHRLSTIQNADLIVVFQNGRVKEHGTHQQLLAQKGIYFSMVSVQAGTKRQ

Activity: inhibitor [+]
Structure (SMILES): CC[C@H]1OC(=O)[C@H](C)[C@@H](O[C@H]2C[C@@](C)(OC)[C@@H](O)[C@H](C)O2)[C@H](C)[C@@H](O[C@@H]2O[C@H](C)C[C@H](N(C)C)[C@H]2O)[C@](C)(O)C[C@@H](C)CN(C)[C@H](C)[C@@H](O)[C@]1(C)O [AZITHROMYCIN]
